Reference: patent US20100317607A1, “USE OF COMPOUNDS FOR PREPARING ANTI-TUBERCULOSIS AGENTS” (INFECTIOUS DISEASE RESEARCH INSTITUTE, priority 2007, published 2010)
In brackets after ≈: the same amount, converted by molar mass. Where a name gives a salt, the structure may show the parent alone.

What was measured:
[1] = tested on: H37Rv strain of M. tuberculosis; assay: Alamar Blue Susceptibility Test (MABA); assay type: cell-based; conditions: H37Rv strain of M. tuberculosis, Alamar Blue; for MIC: Mycobacterium tuberculosis, read-out: MABA (TB growth inhibition, colourimetric assay)
[2] = tested on: non replicating phase of M. tuberculosis (H37Rv with a plasmid with an acetimidase promoter driving a luciferase gene); assay: microbe, parasite or virus in culture; assay type: cell-based; conditions: non replicating M. tuberculosis H37Rv luciferase strain; for MIC: Mycobacterium tuberculosis, read-out: LORA (TB growth inhibition, MIC)

Row | Structure (SMILES) | MIC [1] [µM] | MIC [2] [µM] | MABA (TB growth inhibition, colourimetric assay) [1] | LORA (TB growth inhibition, MIC) [2]
1 | c1ccc2c(CNc3nc(N4CCCCC4)nc4ccccc34)cccc2c1 [Compound 37, N-(Naphthalen-1-ylmethyl)-2-(piperidin-1-yl)quinazolin-4-amine] | < 10 | < 10 | – | –
2 | FC(F)(F)c1ccc(CNc2nc(N3CCCCC3)nc3ccccc23)cc1 [Compound 38, 2-(Piperidin-1-yl)-N-(4-(trifluoromethyl)benzyl)quinazolin-4-amine] | < 10 | < 10 | – | –
3 | C[C@@H](Nc1nc(N2CCCCC2)nc2ccccc12)c1ccccc1 [Compound 39, (R)—N-(1-Phenylethyl)-2-(piperidin-1-yl)quinazolin-4-amine] | < 10 | 10 to 50 (≈ 3.32 to 16.6 µg/mL) | – | –
4 | Clc1ccccc1CNc1nc(N2CCCCC2)nc2ccccc12 [Compound 40, N-(2-Chlorobenzyl)-2-(piperidin-1-yl)quinazolin-4-amine] | < 10 | 10 to 50 (≈ 3.53 to 17.6 µg/mL) | – | –
5 | Clc1cccc(CNc2nc(N3CCCCC3)nc3ccccc23)c1 [Compound 41, N-(3-Chlorobenzyl)-2-(piperidin-1-yl)quinazolin-4-amine] | < 10 | 10 to 50 (≈ 3.53 to 17.6 µg/mL) | – | –
6 | FC(F)(F)c1ccccc1CNc1nc(N2CCCCC2)nc2ccccc12 [Compound 42, 2-(Piperidin-1-yl)-N-(2-(trifluoromethyl)benzyl)quinazolin-4-amine] | < 10 | 10 to 50 (≈ 3.86 to 19.3 µg/mL) | – | –
7 | Cc1ccc(CNc2nc(N3CCCCC3)nc3ccccc23)cc1 [Compound 43, N-(4-Methylbenzyl)-2-(piperidin-1-yl)quinazolin-4-amine] | < 10 | 10 to 50 (≈ 3.32 to 16.6 µg/mL) | – | –
8 | COc1ccc(CNc2nc(N3CCCCC3)nc3ccccc23)cc1 [Compound 44, N-(4-Methoxybenzyl)-2-(piperidin-1-yl)quinazolin-4-amine] | < 10 | 10 to 50 (≈ 3.48 to 17.4 µg/mL) | – | –
9 | c1ccc2c(NCC3CCCCC3)nc(N3CCCCC3)nc2c1 [Compound 45, N-(Cyclohexylmethyl)-2-(piperidin-1-yl)quinazolin-4-amine] | < 10 | 10 to 50 (≈ 3.24 to 16.2 µg/mL) | – | –
10 | c1csc(CNc2nc(N3CCCCC3)nc3ccccc23)c1 [Compound 48, 2-(Piperidin-1-yl)-N-(thiophen-2-ylmethyl)quinazolin-4-amine] | < 10 | 10 to 50 (≈ 3.24 to 16.2 µg/mL) | – | –
11 | FC(F)(F)c1cccc(CNc2nc(N3CCCCC3)nc3ccccc23)c1 [Compound 49, 2-(Piperidin-1-yl)-N-(3-(trifluoromethyl)benzyl)quinazolin-4-amine] | < 10 | 10 to 50 (≈ 3.86 to 19.3 µg/mL) | – | –
12 | CC(C)(Nc1nc(N2CCCCC2)nc2ccccc12)c1ccccc1 [Compound 53, N-(2-Phenylpropan-2-yl)-2-(piperidin-1-yl)quinazolin-4-amine] | < 10 | 10 to 50 (≈ 3.46 to 17.3 µg/mL) | – | –
13 | c1ccc(CNc2cc(N3CCCCC3)nc3ccccc23)cc1 [Compound 54, N-Benzyl-2-(piperidin-1-yl)quinolin-4-amine] | < 10 | < 10 | – | –
14 | c1ccc2c(NC34CC5CC(CC(C5)C3)C4)nc(N3CCCCC3)nc2c1 [Compound 59, N-(1′-Adamantyl)-2-(piperidin-1-yl)quinazolin-4-amine] | – | – | +++ (10-50 μM=+++) | ++++ (key: TB growth<10 μM=++++; 10-50 μM=+++; 50-128 μM=++; >128 μM but inhibited=+; no inhibition=−)
15 | c1ccc2c(NC3C4CC5CC(C4)CC3C5)nc(N3CCCCC3)nc2c1 (centres unmarked) [Compound 60, N-(2′-Adamantyl)-2-(piperidin-1-yl)quinazolin-4-amine] | – | – | +++ (10-50 μM=+++) | ++++ (key: TB growth<10 μM=++++; 10-50 μM=+++; 50-128 μM=++; >128 μM but inhibited=+; no inhibition=−)
16 | CN(C)c1ccc(CNc2nc(N3CCCCC3)nc3ccccc23)cc1 [Compound 62, N-(4-(Dimethylamino)benzyl)-2-(piperidin-1-yl)quinazolin-4-amine] | < 10 | 10 to 50 (≈ 3.61 to 18.1 µg/mL) | – | –

Row | Structure (SMILES) | MIC [1] [µM] | MIC [2] [µM] | MABA (TB growth inhibition, colourimetric assay) [1] | LORA (TB growth inhibition, MIC) [2]
17 | Fc1ccc(CNc2nc(N3CCCCC3)nc3ccccc23)cc1 [Compound 63, N-(4-Fluorobenzyl)-2-(piperidin-1-yl)quinazolin-4-amine] | < 10 | 10 to 50 (≈ 3.36 to 16.8 µg/mL) | – | –
18 | Fc1cccc(CNc2nc(N3CCCCC3)nc3ccccc23)c1 [Compound 64, N-(3-Fluorobenzyl)-2-(piperidin-1-yl)quinazolin-4-amine] | < 10 | 10 to 50 (≈ 3.36 to 16.8 µg/mL) | – | –
19 | Fc1ccccc1CNc1nc(N2CCCCC2)nc2ccccc12 [Compound 65, N-(2-Fluorobenzyl)-2-(piperidin-1-yl)quinazolin-4-amine] | < 10 | 10 to 50 (≈ 3.36 to 16.8 µg/mL) | – | –
20 | c1ccc(CN(Cc2ccccc2)c2nc(N3CCCCC3)nc3ccccc23)cc1 [Compound 66, N,N-Dibenzyl-2-(piperidin-1-yl)quinazolin-4-amine] | < 10 | 10 to 50 (≈ 4.09 to 20.4 µg/mL) | – | –
21 | Clc1ccc(CNc2nc(N3CCCCC3)nc3ccccc23)cc1Cl [Compound 68, N-(3,4-Dichlorobenzyl)-2-(piperidin-1-yl)quinazolin-4-amine] | < 10 | < 10 | – | –
22 | Clc1ccc(CNc2nc(N3CCCCC3)nc3ccccc23)c(Cl)c1 [Compound 69, N-(2,4-Dichlorobenzyl)-2-(piperidin-1-yl)quinazolin-4-amine] | < 10 | 10 to 50 (≈ 3.87 to 19.4 µg/mL) | – | –
23 | Cc1ccc(CNc2nc(NCc3ccc(Cl)cc3)c3ccccc3n2)cc1 [Compound 76, N^4-(4-Chlorobenzyl)-N^2-(4-methylbenzyl)quinazoline-2,4-diamine] | < 10 | 10 to 50 (≈ 3.89 to 19.4 µg/mL) | – | –
24 | FC(F)(F)c1ccc(CNc2nc(N3CCCC3)nc3ccccc23)cc1 [Compound 78, 2-(Pyrrolidin-1-yl)-N-(4-(trifluoromethyl)benzyl)quinazolin-4-amine] | < 10 | 10 to 50 (≈ 3.72 to 18.6 µg/mL) | – | –
25 | Cc1ccc(CNc2nc(NCc3ccc(C(F)(F)F)cc3)c3ccccc3n2)cc1 [Compound 79, N^4-(4-Trifluoromethylbenzyl)-N^2-(4-methylbenzyl)quinazoline-2,4-diamine] | < 10 | 10 to 50 (≈ 4.22 to 21.1 µg/mL) | – | –
26 | Cc1cccc(CNc2nc(N3CCCCC3)nc3ccccc23)c1 [Compound 80, N-(3-Methylbenzyl)-2-(piperidin-1-yl)quinazolin-4-amine hydrochloride] | < 10 | 10 to 50 | – | –
27 | Clc1ccc(CCNc2nc(N3CCCCC3)nc3ccccc23)cc1 [Compound 83, N-(4-Chlorophenethyl)-2-(piperidin-1-yl)quinazolin-4-amine hydrochloride] | < 10 | < 10 | – | –
28 | COc1ccc(CCNc2nc(N3CCCCC3)nc3ccccc23)cc1 [Compound 84, N-(4-Methoxyphenethyl)-2-(piperidin-1-yl)quinazolin-4-amine hydrochloride] | < 10 | 10 to 50 | – | –
29 | N#Cc1ccc(CNc2nc(N3CCCCC3)nc3ccccc23)cc1 [Compound 92, 4-((2-(Piperidin-1-yl)quinazolin-4-ylamino)methyl)benzonitrile] | < 10 | 50 to 128 (≈ 17.2 to 44 µg/mL) | – | –
30 | COC(=O)c1ccc(CNc2nc(N3CCCCC3)nc3ccccc23)cc1 [Compound 93, Methyl 4-((2-(piperidin-1-yl)quinazolin-4-ylamino)methyl)benzoate] | < 10 | 50 to 128 (≈ 18.8 to 48.2 µg/mL) | – | –
31 | C[C@@H](Nc1nc(N2CCCCC2)nc2ccccc12)c1ccc(Cl)cc1 [Compound 96, (R)—N-(1-(4-Chlorophenyl)ethyl)-2-(piperidin-1-yl)quinazolin-4-amine hydrochloride] | < 10 | 10 to 50 | – | –
